From patent US6294152A, “Iron(III) complexes as contrast agents for image enhancement in magnetic resonance imaging” (The University of Toledo, priority 1999, dated 2001)
Like-named read-outs stand apart in the source and are kept apart here.

Key:
[1] = Relaxivity in Water and Plasma; type: physicochemical; settings: 20 MHz, 37° C; for relaxivity r1 (plasma): in plasma; for relaxivity r1 (H2O): in water
Description: Relaxivity values (mM^-1 s^-1) have been determined in water and in plasma at 20 MHz and 37° C.

mice [2] = test: Toxicity Studies in Mice, LD50 i.v.; type: in vivo
Source text: The LD50 value of the tris(ligand) iron(III) complex of ligand IX, Fe-DIOLMAL, has been determined i.v. in mice and found to be ca. 20.0 mmol/kg bw.

mice [3] = settings: metal chloride salts in aqueous solution, i.p.; cited from earlier work

Molecule | relaxivity r1 (plasma) [1] [mM⁻¹ s⁻¹] | relaxivity r1 (H2O) [1] [mM⁻¹ s⁻¹] | LD50 (mice [2]) | LD50 (mice [3]) [mmol/kg]
Cc1c([O-])c(=O)ccn1CCC(=O)O.Cc1c([O-])c(=O)ccn1CCC(=O)O.Cc1c([O-])c(=O)ccn1CCC(=O)O.[Fe+3] [Fe-BETALA] | 2.1 | 1.8 | – | –
Cc1c([O-])c(=O)ccn1CCO.Cc1c([O-])c(=O)ccn1CCO.Cc1c([O-])c(=O)ccn1CCO.[Fe+3] [Fe-ETOHMAL] | 2.0 | 1.7 | ca. 7.5 mmol/kg bw | –
[Gd] [gadolinium] | – | – | – | 1.4
[Mn+2] [manganese] | – | – | – | 1.5
iron | – | – | – | 1.6
